ChEMBL document CHEMBL1151424, “In vitro efficacy of new antifolates against trimethoprim-resistant Bacillus anthracis” (Antimicrob Agents Chemother, 2007)
Converted amounts (≈) assume the structure as drawn.

Key:
Bacillus anthracis [1] = experiment: Antibacterial activity against Bacillus anthracis Sterne after 16 hrs by modified alamar blue microdilution broth assay; format: functional
Bacillus anthracis [2] = experiment: Antibacterial activity against Bacillus anthracis Ames (NR-411) after 16 hrs by modified alamar blue microdilution broth assay; format: functional; conditions: Ames NR-411, 16 h
Bacillus anthracis [3] = experiment: Inhibition of histidine-tagged Bacillus anthracis Sterne recombinant DHFR expressed in Escherichia coli BL21 Star (DE3)pLysS up to 3 mins; conditions: BL21, 0.05 h
Dihydrofolate reductase [4] = molecular target: T1, Dihydrofolate reductase (Homo sapiens, UniProt P00374); experiment: Inhibition of human recombinant DHFR
T1 sequence (P00374 whole entry): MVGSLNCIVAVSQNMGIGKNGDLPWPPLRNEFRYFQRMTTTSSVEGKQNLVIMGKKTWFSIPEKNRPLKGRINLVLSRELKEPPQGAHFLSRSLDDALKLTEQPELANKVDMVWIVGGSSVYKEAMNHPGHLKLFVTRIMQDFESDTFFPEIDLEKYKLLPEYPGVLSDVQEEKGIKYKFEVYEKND

[5] = Selectivity ratio of IC50 for human recombinant DHFR to IC50 for histidine-tagged Bacillus anthracis Sterne recombinant DHFR
Bacillus cereus = experiment: Antibacterial activity against Bacillus cereus up to 10 hrs by growth inhibition assay; format: functional
[6] = Inhibition of Bacillus cereus recombinant DHFR expressed in Escherichia coli BL21(DE3) assessed as enzyme-dependent NADPH consumption
Dihydrofolate reductase [7] = molecular target: T2, Dihydrofolate reductase (Rattus norvegicus, UniProt Q920D2); experiment: Inhibition of rat DHFR
T2 sequence (Q920D2 whole entry): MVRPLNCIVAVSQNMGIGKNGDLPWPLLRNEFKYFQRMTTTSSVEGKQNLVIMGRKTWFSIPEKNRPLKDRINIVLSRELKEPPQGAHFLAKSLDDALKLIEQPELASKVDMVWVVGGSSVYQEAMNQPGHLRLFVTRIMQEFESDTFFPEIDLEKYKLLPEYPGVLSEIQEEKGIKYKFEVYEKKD

`COc1cc(Cc2cnc(N)nc2N)cc(/C=C/C(=O)N2N=Cc3ccccc3C2c2ccccc2)c1OCCN1CCOCC1` (configuration not stated) showed an MIC (Bacillus anthracis [1]) of at most 32 µg/mL, an MIC (Bacillus anthracis [2]) of at most 25.6 µg/mL and an IC50 (Bacillus anthracis [3]) of 170 nM. It also gave an IC50 (Dihydrofolate reductase [4]) of over 21000 nM.
`COc1cc(Cc2cnc(N)nc2N)cc(/C=C/C(=O)N2N=Cc3ccccc3C2c2ccccc2CO)c1OC` (configuration not stated) showed an MIC (Bacillus anthracis [1]) of over 128 µg/mL.
In the case of `COc1cc(Cc2cnc(N)nc2N)cc(/C=C/C(=O)N2N=Cc3ccccc3C2C2CCCC2)c1OC` (configuration not stated), the MIC (Bacillus anthracis [1]) is reported as at most 25.6 µg/mL, the MIC (Bacillus anthracis [2]) is reported as at most 12.8 µg/mL and the IC50 (Bacillus anthracis [3]) is reported as 200 nM. The IC50 (Dihydrofolate reductase [4]) was over 22000 nM, the Ratio IC50 [5] was over 110 and the MIC50 (Bacillus cereus) was 2.6 µg/mL (≈ 5.07 µM). It also gave an IC50 [6] of 270 nM and an IC50 (Dihydrofolate reductase [7]) of 25000 nM.
In the case of `COc1cc(Cc2cnc(N)nc2N)cc(/C=C/C(=O)N2N=Cc3ccccc3C2C2CCCCC2)c1OC` (configuration not stated), the MIC (Bacillus anthracis [1]) is reported as at most 12.8 µg/mL, the MIC (Bacillus anthracis [2]) is reported as at most 12.8 µg/mL and the IC50 (Bacillus anthracis [3]) is reported as 260 nM. For the same molecule, the IC50 (Dihydrofolate reductase [4]) was over 19000 nM, the MIC50 (Bacillus cereus) was 2.6 µg/mL (≈ 4.94 µM) and the IC50 [6] was 270 nM. It also gave an IC50 (Dihydrofolate reductase [7]) of 25000 nM.
Work on `COc1cc(Cc2cnc(N)nc2N)cc(/C=C/C(=O)N2N=Cc3ccccc3C2c2ccc(C)cc2)c1OC` (configuration not stated) yielded an MIC (Bacillus anthracis [1]) of at most 64 µg/mL, an MIC (Bacillus anthracis [2]) of at most 51.2 µg/mL and an IC50 (Bacillus anthracis [3]) of 150 nM. For the same molecule, the IC50 (Dihydrofolate reductase [4]) was over 19000 nM, the Ratio IC50 [5] was over 127 and the MIC50 (Bacillus cereus) was 2.6 µg/mL (≈ 4.86 µM). For the same molecule, the IC50 [6] was 270 nM and the IC50 (Dihydrofolate reductase [7]) was 25000 nM.
For `COc1cc(Cc2cnc(N)nc2N)cc(/C=C/C(=O)N2N=Cc3ccccc3C2c2ccc(O)cc2)c1O` (configuration not stated), the MIC (Bacillus anthracis [1]) was over 128 µg/mL.
Work on `COc1cc(Cc2cnc(N)nc2N)cc(/C=C/C(=O)N2Cc3ccccc3C=N2)c1OC` yielded an MIC (Bacillus anthracis [1]) of over 128 µg/mL and an IC50 [6] of 37000 nM.
Molecule `COc1cc(Cc2cnc(N)nc2N)cc(/C=C/C(=O)N2N=Cc3ccccc3C2c2ccc(CO)cc2)c1O` (configuration not stated) has an MIC (Bacillus anthracis [1]) of at most 128 µg/mL, an IC50 (Bacillus anthracis [3]) of 69 nM and an IC50 (Dihydrofolate reductase [4]) of over 24000 nM.
In the case of `COc1cc(Cc2cnc(N)nc2N)cc(/C=C/C(=O)N2N=Cc3ccccc3C2c2ccccc2)c1OC` (configuration not stated), the MIC (Bacillus anthracis [1]) is reported as at most 25.6 µg/mL, the MIC (Bacillus anthracis [2]) is reported as over 51.2 µg/mL and the IC50 (Bacillus anthracis [3]) is reported as 46 nM. It also gave an IC50 (Dihydrofolate reductase [4]) of over 16000 nM, a Ratio IC50 [5] of over 348 and an MIC50 (Bacillus cereus) of 2.6 µg/mL (≈ 4.99 µM). It also gave an IC50 [6] of 270 nM and an IC50 (Dihydrofolate reductase [7]) of 25000 nM.
`COc1ncc(C2c3ccccc3C=NN2C(=O)/C=C/c2cc(Cc3cnc(N)nc3N)cc(OC)c2OC)c(OC)n1` (configuration not stated) showed an MIC (Bacillus anthracis [1]) of at most 128 µg/mL, an IC50 (Bacillus anthracis [3]) of 600 nM and an IC50 (Dihydrofolate reductase [4]) of over 22000 nM.
For `COc1cc(Cc2cnc(N)nc2N)cc(/C=C/C(=O)N2N=Cc3ccccc3C2CCCO)c1OC` (configuration not stated), the MIC (Bacillus anthracis [1]) was at most 64 µg/mL, the MIC (Bacillus anthracis [2]) was over 102 µg/mL and the IC50 (Bacillus anthracis [3]) was 120 nM. For the same molecule, the IC50 (Dihydrofolate reductase [4]) was over 25000 nM, the MIC50 (Bacillus cereus) was 2.6 µg/mL (≈ 5.17 µM) and the IC50 [6] was 270 nM. The IC50 (Dihydrofolate reductase [7]) was 25000 nM.
`CCC1c2ccccc2C=NN1C(=O)/C=C/c1cc(Cc2cnc(N)nc2N)cc(OC)c1OC` (configuration not stated) gave an MIC (Bacillus anthracis [1]) of at most 32 µg/mL, an MIC (Bacillus anthracis [2]) of at most 25.6 µg/mL and an IC50 (Bacillus anthracis [3]) of 96 nM. The IC50 (Dihydrofolate reductase [4]) was over 27000 nM, the Ratio IC50 [5] was over 281 and the MIC50 (Bacillus cereus) was 2.6 µg/mL (≈ 5.5 µM). The IC50 [6] was 270 nM and the IC50 (Dihydrofolate reductase [7]) was 25000 nM.
For `COc1cc(Cc2cnc(N)nc2N)cc(/C=C/C(=O)N2N=Cc3ccccc3C2c2ccc(CO)cc2)c1C(OC)OC` (configuration not stated), the MIC (Bacillus anthracis [1]) was over 128 µg/mL.
Molecule `COc1cc(Cc2cnc(N)nc2N)cc(CCC(=O)N2N=Cc3ccccc3C2C)c1OC` (configuration not stated) has an MIC (Bacillus anthracis [1]) of at most 64 µg/mL, an MIC (Bacillus anthracis [2]) of at most 64 µg/mL and an IC50 (Bacillus anthracis [3]) of 92 nM. For the same molecule, the IC50 (Dihydrofolate reductase [4]) was over 28000 nM and the IC50 [6] was 37000 nM.
Work on `COc1cc(Cc2cnc(N)nc2N)cc(/C=C/C(=O)N2N=Cc3ccccc3C2c2ccc(O)cc2)c1C(OC)OC` (configuration not stated) yielded an MIC (Bacillus anthracis [1]) of over 128 µg/mL.
With `COc1cc(Cc2cnc(N)nc2N)cc(/C=C/C(=O)N2N=Cc3ccccc3C2c2ccc(O)cc2)c1OC` (configuration not stated) the MIC (Bacillus anthracis [1]) was over 128 µg/mL.
For `CCCC1c2ccccc2C=NN1C(=O)/C=C/c1cc(Cc2cnc(N)nc2N)cc(O)c1OC` (configuration not stated), the MIC (Bacillus anthracis [1]) was at most 12.8 µg/mL, the MIC (Bacillus anthracis [2]) was at most 16 µg/mL and the IC50 (Bacillus anthracis [3]) was 54 nM. It also gave an IC50 (Dihydrofolate reductase [4]) of 110000 nM, a Ratio IC50 [5] of 2040 and an MIC50 (Bacillus cereus) of 2.6 µg/mL (≈ 5.5 µM). For the same molecule, the IC50 [6] was 270 nM and the IC50 (Dihydrofolate reductase [7]) was 25000 nM.
Molecule `CCCCC1c2ccccc2C=NN1C(=O)/C=C/c1cc(Cc2cnc(N)nc2N)cc(OC)c1OC` (configuration not stated) has an MIC (Bacillus anthracis [1]) of at most 12.8 µg/mL, an MIC (Bacillus anthracis [2]) of at most 12.8 µg/mL and an IC50 (Bacillus anthracis [3]) of 170 nM. The IC50 (Dihydrofolate reductase [4]) was over 20000 nM, the Ratio IC50 [5] was over 118 and the MIC50 (Bacillus cereus) was 2.6 µg/mL (≈ 5.19 µM). For the same molecule, the IC50 [6] was 270 nM and the IC50 (Dihydrofolate reductase [7]) was 25000 nM.
In the case of `COc1cc(Cc2cnc(N)nc2N)cc(/C=C/C(=O)N2N=Cc3ccccc3C2c2ccc(CO)cc2)c1OC` (configuration not stated), the MIC (Bacillus anthracis [1]) is reported as at most 128 µg/mL, the IC50 (Bacillus anthracis [3]) is reported as 97 nM and the IC50 (Dihydrofolate reductase [4]) is reported as over 23000 nM.
`COc1cc(Cc2cnc(N)nc2N)cc(/C=C/C(=O)N2N=Cc3ccccc3C2c2ccccc2CN(C)C)c1OC` (configuration not stated) showed an MIC (Bacillus anthracis [1]) of at most 128 µg/mL, an IC50 (Bacillus anthracis [3]) of 400 nM and an IC50 (Dihydrofolate reductase [4]) of over 42000 nM.
For `COC(=O)C(C)(C)C1c2ccccc2C=NN1C(=O)/C=C/c1cc(Cc2cnc(N)nc2N)cc(OC)c1OC` (configuration not stated), the MIC (Bacillus anthracis [1]) was at most 128 µg/mL, the IC50 (Bacillus anthracis [3]) was 300 nM and the IC50 (Dihydrofolate reductase [4]) was 813000 nM. For the same molecule, the MIC50 (Bacillus cereus) was 2.6 µg/mL (≈ 4.77 µM), the IC50 [6] was 270 nM and the IC50 (Dihydrofolate reductase [7]) was 25000 nM.
In the case of `COc1cc(Cc2cnc(N)nc2N)cc(OC)c1OC` [TRIMETHOPRIM], the MIC (Bacillus anthracis [1]) is reported as over 2050 µg/mL.
